Assay results taken from PubChem BioAssay (NCI).
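Five concentrations, 48 hours, 96-well plates. GI50 marks 50% less growth. At the TGI there is no net growth.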

Key:
Test in all cases: DTP human tumour cell line panel, 48 h
[1] = system: SW-620 colon
[2] = system: UACC-257 melanoma
[3] = system: SF-295 CNS
[4] = system: EKVX NSCLC
[5] = system: KM12 colon
[6] = system: NCI-H460 lung
[7] = system: U251 CNS
[8] = system: HCT-116 colon
[9] = system: A498 renal
[10] = system: SK-MEL-28 melanoma
[11] = system: NCI-H23 lung
[12] = system: MDA-MB-435
[13] = system: SK-OV-3 ovarian
[14] = system: MOLT-4 leukemia
[15] = system: HL-60(TB) leukemia
[16] = system: HS 578T breast
[17] = system: SR leukemia
[18] = system: HOP-62 NSCLC
[19] = system: SF-539 CNS
[20] = system: SNB-19 CNS
[21] = system: NCI-H226 lung
[22] = system: DU-145 prostate
[23] = system: OVCAR-4 ovarian
[24] = system: BT-549 breast
[25] = system: RXF 393 renal
[26] = system: CCRF-CEM leukemia
[27] = system: M14 melanoma
[28] = system: OVCAR-5 ovarian
[29] = system: T-47D breast
[30] = system: COLO 205 colon
[31] = system: UO-31 renal
[32] = system: OVCAR-8 ovarian
[33] = system: MCF7 breast
[34] = system: PC-3 prostate
[35] = system: K-562 leukemia
[36] = system: CAKI-1 renal
[37] = system: HOP-92 NSCLC
[38] = system: NCI-H522 lung
[39] = system: HCT-15 colon
[40] = system: NCI/ADR-RES ovarian
[41] = system: IGROV1 ovarian
[42] = system: SF-268 CNS
[43] = system: SN12C renal
[44] = system: TK-10 renal
[45] = system: SNB-75 CNS
[46] = system: MDA-MB-231 breast
[47] = system: 786-0 renal
[48] = system: MALME-3M melanoma
[49] = system: SK-MEL-5 melanoma
[50] = system: RPMI-8226 leukemia
[51] = system: A549 NSCLC
[52] = system: HT29 colon
[53] = system: ACHN renal
[54] = system: OVCAR-3 ovarian
[55] = system: SK-MEL-2 melanoma
[56] = system: LOX IMVI melanoma
[57] = system: UACC-62 melanoma
[58] = system: HCC-2998 colon

O=C1c2cc(I)ccc2N2CCN=C2N1Cc1ccccc1
TGI [1]: > 100 µM
TGI [2]: > 100 µM
TGI [3]: > 100 µM
TGI [4]: > 100 µM
TGI [5]: > 100 µM
TGI [6]: > 100 µM
TGI [7]: > 100 µM
TGI [8]: > 100 µM
TGI [9]: 94.1 µM
TGI [10]: > 100 µM
TGI [11]: > 100 µM
TGI [12]: > 100 µM
TGI [13]: > 100 µM
TGI [14]: > 100 µM
TGI [15]: > 100 µM
TGI [16]: > 100 µM
TGI [17]: > 100 µM
TGI [18]: > 100 µM
TGI [19]: > 100 µM
TGI [20]: > 100 µM
TGI [21]: > 100 µM
TGI [22]: > 100 µM
TGI [23]: > 100 µM
TGI [24]: > 100 µM
TGI [25]: 49.4 µM
TGI [26]: > 100 µM
TGI [27]: > 100 µM
TGI [28]: > 100 µM
TGI [29]: > 100 µM
TGI [30]: > 100 µM
TGI [31]: > 100 µM
TGI [32]: > 100 µM
TGI [33]: > 100 µM
TGI [34]: > 100 µM
TGI [35]: > 100 µM
TGI [36]: > 100 µM
TGI [37]: 80.1 µM
TGI [38]: > 100 µM
TGI [39]: > 100 µM
TGI [40]: > 100 µM
TGI [41]: > 100 µM
TGI [42]: > 100 µM
TGI [43]: > 100 µM
TGI [44]: > 100 µM
TGI [45]: 39.7 µM
TGI [46]: > 100 µM
TGI [47]: > 100 µM
TGI [48]: > 100 µM
TGI [49]: > 100 µM
TGI [50]: > 100 µM
TGI [51]: > 100 µM
TGI [52]: > 100 µM
TGI [53]: > 100 µM
TGI [54]: > 100 µM
TGI [55]: > 100 µM
TGI [56]: > 100 µM

CC1(C)CC(=O)C=C(/C=C/Sc2c(Cl)c(Cl)nc(Cl)c2Cl)C1
GI50 [1]: 11.8 µM
TGI [1]: 32.7 µM
GI50 [2]: 15.6 µM
TGI [2]: 31.8 µM
GI50 [3]: 17.7 µM
TGI [3]: 35.6 µM
GI50 [5]: 11.6 µM
TGI [5]: 26.2 µM
GI50 [6]: 11.8 µM
TGI [6]: 32.1 µM
GI50 [7]: 14.8 µM
TGI [7]: 28.5 µM
GI50 [8]: 3.85 µM
TGI [8]: 13.3 µM
GI50 [9]: 21.7 µM
TGI [9]: 36.6 µM
GI50 [57]: 8.48 µM
TGI [57]: 20.8 µM
GI50 [10]: 15.5 µM
TGI [10]: 31.9 µM
GI50 [11]: 6.34 µM
TGI [11]: 19.3 µM
GI50 [12]: 2.88 µM
TGI [12]: 8.2 µM
GI50 [13]: 19.9 µM
TGI [13]: 34.8 µM
GI50 [14]: 4.61 µM
TGI [14]: > 100 µM
GI50 [16]: 25.8 µM
TGI [16]: 74.3 µM
GI50 [17]: 3.89 µM
TGI [17]: > 100 µM
GI50 [18]: 12.9 µM
TGI [18]: 27.8 µM
GI50 [19]: 11.8 µM
TGI [19]: 26.4 µM
GI50 [20]: 15.9 µM
TGI [20]: 29.5 µM
GI50 [21]: 12.7 µM
TGI [21]: 29 µM
GI50 [22]: 10 µM
TGI [22]: 21.7 µM
GI50 [23]: 20.3 µM
TGI [23]: 57.9 µM
GI50 [24]: 5.87 µM
TGI [24]: 22.3 µM
GI50 [25]: 7.61 µM
TGI [25]: 22 µM
GI50 [27]: 11.7 µM
TGI [27]: 24.2 µM
GI50 [28]: 14.5 µM
TGI [28]: 29.7 µM
GI50 [30]: 17.2 µM
TGI [30]: 31.3 µM
GI50 [31]: 10 µM
TGI [31]: 33.4 µM
GI50 [32]: 19.3 µM
TGI [32]: 45 µM
GI50 [33]: 2.47 µM
TGI [33]: 8.05 µM
GI50 [34]: 3.54 µM
TGI [34]: 14.1 µM
GI50 [35]: 8.79 µM
TGI [35]: > 100 µM
GI50 [36]: 2.23 µM
TGI [36]: 5.4 µM
GI50 [37]: 16.7 µM
TGI [37]: 35.2 µM
GI50 [38]: 6.17 µM
TGI [38]: 37 µM
GI50 [39]: 5.64 µM
TGI [39]: 23 µM
GI50 [40]: 11.3 µM
TGI [40]: 25.6 µM
GI50 [41]: 4.75 µM
TGI [41]: 84.9 µM
GI50 [42]: 13 µM
TGI [42]: 32.4 µM
GI50 [43]: 4.56 µM
TGI [43]: 16.3 µM
GI50 [58]: 9.46 µM
TGI [58]: 21.3 µM
GI50 [44]: 19.6 µM
TGI [44]: 35.5 µM
GI50 [45]: 15.9 µM
TGI [45]: 31.5 µM
GI50 [46]: 7.22 µM
TGI [46]: 20.4 µM
GI50 [47]: 3.92 µM
TGI [47]: 15.2 µM
GI50 [49]: 11.8 µM
TGI [49]: 24.4 µM
GI50 [50]: 3.41 µM
TGI [50]: 75.1 µM
GI50 [51]: 15.4 µM
TGI [51]: 29.8 µM
GI50 [52]: 16.5 µM
TGI [52]: 47.1 µM
GI50 [53]: 11.1 µM
TGI [53]: 23.3 µM
GI50 [54]: 2.6 µM
TGI [54]: 8.29 µM
GI50 [55]: 70.2 µM
TGI [55]: > 100 µM
GI50 [56]: 3.26 µM
TGI [56]: 12.9 µM
